Assay results taken from patent EP3570868B1, “[…] ANTIMICROBIAL PEPTIDES AND THEIR APPLICATIONS FOR THE TREATMENT AND PREVENTION OF MUSCU[…]” (Ustav Organicke Chemie a Biochemie AV CR, v.v.i., priority 2017, dated 2018).
Square brackets hold non-standard residues; d marks the D form. Peptide text beside a SMILES is read from it. Met(O) = CS(=O)CC[C@H](N)C(=O)O; βAla = NCCC(=O)O

Experiments:
human red blood cells = assay: Determination of haemolytic activity; type: cell-based; conditions: human red blood cells (5% v/v), 1 h at 37 °C; concentration for lysis of 50% of erythrocytes
Experimental: The peptides in the concentrations 2-400 µmol.1^-1 were incubated with the suspension of human red blood cells (5% v/v) for 1 h at 37 °C in a physiological solution at a final volume of 0.2 ml. The samples were then centrifuged for 5 min at 250 g. The absorbance of the supernatant was determined at 540 nm. 0.2% (v/v) TRITON X100 was used as a control for 100% haemolysis. Haemolytic activity is expressed as the peptide concentration required for lysis of 50% of human erythrocytes in the assay (LC50). Table 2. Antimicrobial and haemolytic activity of I up to XIII peptides and tetracycline.

[1] = system: S. aureus (clin. isolate Liberec); assay: Induced osteomyelitis model in femur heads: effect of peptides released from carrier on infection in the bone graft; type: cell-based; conditions: ChronOS (200 mg); 10 mg; two days; carrier without peptide 1,4x10^7
Experimental: (§1) 3-4 holes of a diameter of 5 mm and a depth of 10 mm are drilled with a surgical spoon into a femur head under sterile conditions (spongy part of the bone in the resection site). Thereafter, this bone graft is put into a beaker of appropriate size and lined with sterile gauze squares. The gauze is moistened with sterile physiological saline to prevent drying of the bone. Then, suspension of multiplied microbes in an appropriate medium (50-100 µl) at a concentration of 10^7 to 10^9 CFU is sequentially applied to the prepared holes in the bone graft and allowed to incubate for 1-2 days. […] Beaker with the infected bone graft is covered with a sterile Petri dish. During the experiment, induced osteomyelitis models are kept protected from light at room temperature.
(§2) After the incubation, the infected holes in the bone are filled with a mixture of the local carrier, and a peptide selected from the series of peptides of formulae I to XIII or their specific enantiomers (Figure 1). For comparison, one of the holes is filled with the local carrier without peptide, or the carrier filled with antibiotic (vancomycin or gentamicin). A commercially available two-component material supplied by Synthes (Synthes GmbH, Switzerland) under the name ChronOS Inject was used as the carrier. Its solid component comprises a mixture of calcium phosphates CaHPO4.2H2O and Ca3(PO4)2 and additives, the liquid component is 0.5% (vol./vol.) solution of hyaluronic acid.
(§3) After two days, the filling is thoroughly removed with a surgical spoon and empty holes are wiped with moistened sterile cotton swab, which is then extracted into 400 µl physiological saline. The extract is diluted in a tenfold serial dilution and each diluted suspension is cultured on agar in Petri dishes; the culture is evaluated on the following day. […] The result of the peptide effect is also compared with the result of the effect of antibiotics. In some cases, microbiological examination of the bone tissue taken with a surgical spoon from a deeper area of the drilled holes is performed. […] Table 3. Evaluation of the effect of antimicrobial peptides released from the carrier on an infection in the bone graft. Effect of antimicrobial activity is expressed in the number of CFU (colony-forming units) in the infected hole after swabbing.

Bacillus subtilis = type: cell-based; conditions: B.s.; 37° C for 20 h
Experimental: (§4) Gram-positive bacteria (Bacillus subtilis, Staphylococcus aureus, Staphylococcus epidermidis and Enterococcus faecalis), Gram-negative bacteria (Escherichia coli and Pseudomonas aeruginosa) and the yeast (Candida albicans) were grown to exponential phase and then were diluted with fresh medium. BHI medium (Oxoid, Great Britain) was used for Enterococcus faecalis; YPD medium containing yeast extract, peptone and glucose was used for Candida albicans and LB medium (Sigma, Czech Republic) was used for the remaining microorganisms. Then the microorganisms were added to the solutions of the tested antimicrobial peptides in LB medium in multi-well plates, so that the final peptide concentration it the wells was in the range of 0.5 to 100 µmοl.1^-1. The plates were incubated at 37° C for 20 h while being continuously shaken in a Bioscreen C (Oy Growth Curves AB Ltd., Helsinki, Finland). Absorbance was measured at 540 nm every 15 min. Antimicrobial activity (Table 2) was determined as a quantitative minimum inhibitory concentration (MIC) by observing bacterial growth in the presence of different concentrations of tested peptides. In the experiments, ca 10^5 CFU of bacteria or candida per well were used. Tetracycline in a concentration range of 0.5 - 100 µmol.1^-1 was used as a standard.
(§5) Clinical isolates of bacteria were obtained from University Hospital in Motol, Prague, Czech Republic and from Liberec Regional Hospital, Czech Republic. Methicillin resistant Staphylococcus aureus (MRSA) 6271 and Pseudomonas aeruginosa 5482 were from the Czech National Collection of Type Cultures, the National Institute of Public Health, Prague, Czech Republic. Other bacteria were from the Czech Collection of Microorganisms, Brno, Czech Republic. Candida albicans came from the Faculty of Medicine, Palacky University, Olomouc, Czech Republic. Candida tropicalis ATCC 750 and Candida glabrata DSY 565 were obtained from the Institute of Physiology, Academy of Sciences of the Czech Republic.

Candida albicans = type: cell-based; conditions: C.a.; 37° C for 20 h
Experimental: as §4, §5

Escherichia coli = type: cell-based; conditions: E.c.; 37° C for 20 h
Experimental: as §4, §5

[2] = system: MRSA (clin. isolate Liberec); type: cell-based, Staphylococcus aureus; conditions: 37° C for 20 h
Experimental: as §4, §5

[3] = system: MRSA (clin. isolate Motol); type: cell-based, Staphylococcus aureus; conditions: 37° C for 20 h
Experimental: as §4, §5

MRSA 6271 [4] = type: cell-based, Staphylococcus aureus; conditions: 37° C for 20 h
Experimental: as §4, §5

[5] = system: S.e. (clin. isolate Motol); type: cell-based, Staphylococcus epidermidis; conditions: 37° C for 20 h
Experimental: as §4, §5

[6] = system: E.f. (clin. isolate Motol); type: cell-based, Enterococcus faecalis; conditions: 37° C for 20 h
Experimental: as §4, §5

[7] = system: P.a. (clin. isolate Liberec); type: cell-based, Pseudomonas aeruginosa; conditions: 37° C for 20 h
Experimental: as §4, §5

P.a. 5482 = type: cell-based, Pseudomonas aeruginosa; conditions: 37° C for 20 h
Experimental: as §4, §5

MRSA 6271 [8] = assay: Biofilm formation on the surface of a bone cement implant in femur heads; type: cell-based, Staphylococcus aureus; conditions: two days, cement without peptide 6.0x10^4
Experimental: The resulting elastic paste is placed into a 2 ml plastic syringe (without needle) and pressed into the infected holes in the spongy part of the bone, where it polymerizes and hardens. For comparison, other similarly infected holes are filled with cement containing only an antibiotic or antimycotic agent. For comparison, a Vancogenx® cement (Tecresa S. p. A., Italy) is used, made from a mixture of a powdered polymer component containing vancomycin and gentamicin. The mixture in an amount of 125 mg is mixed with liquid monomer (50-60 µl) and then pressed into the openings as described above. In another embodiment, the cements are applied to uninfected holes, allowed to harden, and then microbes are pipetted into the hole excavated between implants. From there they penetrate through bone tissue and settle on the implants with consequent formation of biofilms.
After two days, implants are removed with metal spikes and tweezers, mechanically cleaned from debris of bone tissue, and washed four times with physiological saline (0.5 ml) in plastic tubes to remove any residual planktonic microbes or bone cells from their surface. The implants in closed tubes with 0.4 ml saline are then sonicated four times for 3 min with occasional shaking. The of microbial biofilm on the surface of the implant is thus disrupted and microbes are loosed into the physiological saline. The resulting suspension is subsequently diluted using the tenfold serial dilution for culturing on agar.
Evaluation of the effect of antimicrobial peptides on the formation of microbial biofilm on the surface of the implant made of the bone cement.

[9] = system: S. epidermidis (clin. isolate Motol); assay: Induced osteomyelitis model in femur heads: effect of peptides released from carrier on infection in the bone graft; type: cell-based; conditions: 10 mg, two days
Experimental: as §1, §2, §3

Row | Compound | Hemolytic activity LC50 (human red blood cells) [µM] | CFU/hole [1] | Antimicrobial activity MIC (Bacillus subtilis) | Antimicrobial activity MIC (Candida albicans) | Antimicrobial activity MIC (Escherichia coli) | Antimicrobial activity MIC [2] | Antimicrobial activity MIC [3] | Antimicrobial activity MIC (MRSA 6271 [4]) | Antimicrobial activity MIC [5] | Antimicrobial activity MIC [6] | Antimicrobial activity MIC [7] | Antimicrobial activity MIC (P.a. 5482) | CFU/implant (MRSA 6271 [8]) [CFU/implant] | CFU/hole ([9]; ChronOS (200 mg), carrier without peptide 7,2x10^4) | CFU/hole ([9]; ChronOS (300 mg), separate holes, carrier without peptide 1,2x10^5) [in all cases CFU/hole]
1 | CC[C@@H](C)[C@@H](NC(=O)[C@@H](CCCCN)NC(=O)[C@@H](CCCCN)NC(=O)[C@@H](CC(C)C)NC(=O)[C@@H](CC(C)C)NC(=O)[C@@H](CCCCN)NC(=O)[C@@H](CCSC)NC(=O)[C@@H](Cc1c[nH]c2ccccc12)NC(=O)[C@H](N)CCCCN)C(=O)N[C@H](CC(C)C)C(=O)N[C@H](CCCCN)C(N)=O [II] (H-[dK][dW][dM][dK][dL][dL][dK][dK][dI][dL][dK]-NH2) | >400 | 1,8 x10^4 CFU/hole | – | – | – | – | – | – | – | – | – | – | – | – | –
2 | CC[C@@H](C)[C@@H](NC(=O)[C@@H](CCCCN)NC(=O)[C@@H](CCCCN)NC(=O)[C@@H](CC(C)C)NC(=O)[C@@H](CC(C)C)NC(=O)[C@@H](CCCCN)NC(=O)[C@@H](CCSC)NC(=O)[C@@H](Cc1c[nH]c2ccccc12)NC(=O)[C@@H](CCCCN)NC(=O)CCN)C(=O)N[C@H](CC(C)C)C(=O)N[C@H](CCCCN)C(N)=O [Peptide VI] (H-[βAla][dK][dW][dM][dK][dL][dL][dK][dK][dI][dL][dK]-NH2) | >400 | – | – | – | – | – | – | – | – | – | – | – | – | – | –
3 | CC[C@H](C)[C@H](NC(=O)[C@H](CCCCN)NC(=O)[C@H](CCCCN)NC(=O)[C@H](CC(C)C)NC(=O)[C@H](CC(C)C)NC(=O)[C@H](CCCCN)NC(=O)[C@H](CC[S+](C)[O-])NC(=O)[C@H](Cc1c[nH]c2ccccc12)NC(=O)[C@H](CCCCN)NC(=O)CN)C(=O)N[C@@H](CC(C)C)C(=O)N[C@@H](CCCCN)C(N)=O (stereo partly drawn) [XII] (H-GKW[Met(O)]KLLKKILK-NH2) | >400 | – | 2,5 µmol.l^-1 | 21,3 µmol.l^-1 | 26,7 µmol.l^-1 | 11,5 µmol.l^-1 | 25,3 µmol.l^-1 | 64,0 µmol.l^-1 | 5,0 µmol.l^-1 | >100 µmol/L | 22,1 µmol.l^-1 | 5,0 µmol.l^-1 | 0 | – | –
4 | CC[C@@H](C)[C@@H](NC(=O)[C@@H](CCCCN)NC(=O)[C@@H](CCCCN)NC(=O)[C@@H](CC(C)C)NC(=O)[C@@H](CC(C)C)NC(=O)[C@@H](CCCCN)NC(=O)[C@@H](CCSC)NC(=O)[C@@H](Cc1c[nH]c2ccccc12)NC(=O)[C@@H](CCCCN)NC(=O)CN)C(=O)N[C@H](CC(C)C)C(=O)N[C@H](CCCCN)C(N)=O [IV] | >400 | – | 1,4 µmol.l^-1 | 5,7 µmol.l^-1 | 3,0 µmol.l^-1 | 5,3 µmol.l^-1 | 9,7 µmol.l^-1 | 11,3 µmol.l^-1 | 2,0 µmol.l^-1 | 12,7 µmol.l^-1 | 12,5 µmol.l^-1 | 4,5 µmol.l^-1 | – | – | –
5 | CC[C@H](C)[C@H](NC(=O)[C@H](CCCCN)NC(=O)[C@H](CCCCN)NC(=O)[C@H](CC(C)C)NC(=O)[C@H](CC(C)C)NC(=O)[C@H](CCCCN)NC(=O)[C@H](CC(C)C)NC(=O)[C@H](Cc1c[nH]c2ccccc12)NC(=O)[C@H](CCCCN)NC(=O)CN)C(=O)N[C@@H](CC(C)C)C(=O)N[C@@H](CCCCN)C(N)=O [Peptide VII] (H-GKWLKLLKKILK-NH2) | 196 | – | 2,0 µmol.l^-1 | 16,0 µmol.l^-1 | 5,0 µmol.l^-1 | 8,0 µmol.l^-1 | 10,0 µmol.l^-1 | 10,0 µmol.l^-1 | 2,2 µmol.l^-1 | 50,7 µmol.l^-1 | 10,7 µmol.l^-1 | 4,0 µmol.l^-1 | – | 1,2 x10^2 CFU/hole | –
6 | CC[C@@H](C)[C@@H](NC(=O)[C@@H](CCCCN)NC(=O)[C@@H](CCCCN)NC(=O)[C@@H](CC(C)C)NC(=O)[C@@H](CC(C)C)NC(=O)[C@@H](CCCCN)NC(=O)[C@H](NC(=O)[C@@H](Cc1c[nH]c2ccccc12)NC(=O)[C@@H](CCCCN)NC(=O)CN)C(C)C)C(=O)N[C@H](CC(C)C)C(=O)N[C@H](CCCCN)C(N)=O [IX] (H-G[dK][dW][dV][dK][dL][dL][dK][dK][dI][dL][dK]-NH2) | >400 | – | – | – | – | – | – | – | – | – | – | – | – | – | 0
7 | CC[C@H](C)[C@H](NC(=O)[C@H](CCCCN)NC(=O)[C@H](CCCCN)NC(=O)[C@H](CC(C)C)NC(=O)[C@H](CC(C)C)NC(=O)[C@H](CCCCN)NC(=O)[C@H](CCCCN)NC(=O)[C@H](Cc1c[nH]c2ccccc12)NC(=O)[C@H](CCCCN)NC(=O)CN)C(=O)N[C@@H](CC(C)C)C(=O)N[C@@H](CCCCN)C(N)=O [X] (H-GKWKKLLKKILK-NH2) | >400 | – | 2,4 µmol.l^-1 | 9,5 µmol.l^-1 | 11,5 µmol.l^-1 | 11,5 µmol.l^-1 | 25,3 µmol.l^-1 | 29,7 µmol.l^-1 | 4,7 µmol.l^-1 | >100 µmol/L | 9,5 µmol.l^-1 | 2,9 µmol.l^-1 | – | – | –
